In ChEMBL document CHEMBL4270512, “Harnessing pyrrolidine iminosugars into dimeric structures for the rapid discovery of divalent glycosidase inhibitors” (Eur J Med Chem, 2018):
pIC50, pKi: −log10 of the molar value. Activity calls are given as the source filed them. No cut-off for these calls is given here.

Legend:
[1] = target: T1, Beta-galactosidase (Bos taurus) (UniProt Q58D55); experiment: Inhibition of bovine liver beta-galactosidase at 200 uM using p-nitrophenyl glycopyranoside as substrate preincubated for 5 mins followed by substrate addition and measured after 20 mins by visible absorption spectroscopic analysis relative to control
T1 sequence (whole entry): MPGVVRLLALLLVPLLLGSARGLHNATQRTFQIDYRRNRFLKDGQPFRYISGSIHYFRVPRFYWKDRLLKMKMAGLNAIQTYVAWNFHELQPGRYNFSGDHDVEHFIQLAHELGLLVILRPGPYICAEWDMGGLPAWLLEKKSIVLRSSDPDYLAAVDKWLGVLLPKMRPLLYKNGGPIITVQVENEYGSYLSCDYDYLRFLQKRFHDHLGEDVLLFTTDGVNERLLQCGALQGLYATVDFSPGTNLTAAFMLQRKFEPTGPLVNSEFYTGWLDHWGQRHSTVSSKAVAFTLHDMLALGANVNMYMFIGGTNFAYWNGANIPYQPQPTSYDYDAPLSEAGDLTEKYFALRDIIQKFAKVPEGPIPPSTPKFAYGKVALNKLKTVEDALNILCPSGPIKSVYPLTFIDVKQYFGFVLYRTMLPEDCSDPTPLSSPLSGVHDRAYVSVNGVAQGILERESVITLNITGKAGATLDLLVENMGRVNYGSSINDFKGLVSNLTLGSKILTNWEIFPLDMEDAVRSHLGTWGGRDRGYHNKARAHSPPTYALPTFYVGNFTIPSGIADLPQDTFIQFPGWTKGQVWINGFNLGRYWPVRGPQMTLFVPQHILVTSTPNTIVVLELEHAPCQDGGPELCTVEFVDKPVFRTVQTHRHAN

[2] = Competitive inhibition of human alpha-fucosidase using p-nitrophenyl glycopyranoside as substrate preincubated for 5 mins followed by substrate addition and measured after 20 mins by Lineweaver-Burk plot analysis
Aspergillus niger = experiment: Inhibition of Aspergillus niger amyloglucosidase at 0.1 mM using p-nitrophenyl glycopyranoside as substrate preincubated for 5 mins followed by substrate addition and measured after 20 mins by visible absorption spectroscopic analysis
[3] = Uncompetitive inhibition of human alpha-fucosidase using p-nitrophenyl glycopyranoside as substrate preincubated for 5 mins followed by substrate addition and measured after 20 mins by Lineweaver-Burk plot analysis
Canavalia ensiformis = experiment: Inhibition of jack beans beta-N-acetylglucosaminidase at 0.1 mM using p-nitrophenyl glycopyranoside as substrate preincubated for 5 mins followed by substrate addition and measured after 20 mins by visible absorption spectroscopic analysis
Cornu aspersum = experiment: Inhibition of snail beta-mannosidase at 0.1 mM using p-nitrophenyl glycopyranoside as substrate preincubated for 5 mins followed by substrate addition and measured after 20 mins by visible absorption spectroscopic analysis
Oryza sativa = experiment: Inhibition of rice beta-glucosidase at 0.1 mM using p-nitrophenyl glycopyranoside as substrate preincubated for 5 mins followed by substrate addition and measured after 20 mins by visible absorption spectroscopic analysis
[4] = Inhibition of human alpha-fucosidase using p-nitrophenyl glycopyranoside as substrate preincubated for 5 mins followed by substrate addition and measured after 20 mins by visible absorption spectroscopic analysis
Prunus dulcis = experiment: Inhibition of almond beta-glucosidase at 0.1 mM using p-nitrophenyl glycopyranoside as substrate preincubated for 5 mins followed by substrate addition and measured after 20 mins by visible absorption spectroscopic analysis
[5] = target: Alpha-galactosidase (Coffea arabica) (UniProt Q42656); experiment: Inhibition of coffee beans alpha-galactosidase at 0.1 mM using p-nitrophenyl glycopyranoside as substrate preincubated for 5 mins followed by substrate addition and measured after 20 mins by visible absorption spectroscopic analysis
Chain of Alpha-galactosidase (Coffea arabica) (Q42656 16-378 limits assumed): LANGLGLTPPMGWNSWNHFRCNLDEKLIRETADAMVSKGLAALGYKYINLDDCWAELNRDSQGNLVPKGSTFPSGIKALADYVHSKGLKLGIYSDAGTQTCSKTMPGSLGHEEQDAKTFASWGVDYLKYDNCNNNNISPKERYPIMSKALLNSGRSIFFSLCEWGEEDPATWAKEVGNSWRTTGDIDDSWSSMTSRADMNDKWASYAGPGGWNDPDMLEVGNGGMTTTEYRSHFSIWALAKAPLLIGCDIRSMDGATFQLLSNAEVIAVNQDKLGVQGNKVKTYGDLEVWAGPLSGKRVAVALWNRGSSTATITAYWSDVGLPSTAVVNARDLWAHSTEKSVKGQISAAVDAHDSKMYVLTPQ

[6] = Uncompetitive inhibition of bovine kidney alpha-fucosidase using p-nitrophenyl glycopyranoside as substrate preincubated for 5 mins followed by substrate addition and measured after 20 mins by Lineweaver-Burk plot analysis; design: species or system Bos taurus
[7] = target: T1, Beta-galactosidase (Bos taurus); experiment: Inhibition of bovine liver beta-galactosidase at 0.1 mM using p-nitrophenyl glycopyranoside as substrate preincubated for 5 mins followed by substrate addition and measured after 20 mins by visible absorption spectroscopic analysis
[8] = target: T2, Alpha-mannosidase (Canavalia ensiformis) (UniProt C0HJB3); experiment: Inhibition of jack beans alpha-mannosidase at 0.1 mM using p-nitrophenyl glycopyranoside as substrate preincubated for 5 mins followed by substrate addition and measured after 20 mins by visible absorption spectroscopic analysis
T2 sequence (whole entry): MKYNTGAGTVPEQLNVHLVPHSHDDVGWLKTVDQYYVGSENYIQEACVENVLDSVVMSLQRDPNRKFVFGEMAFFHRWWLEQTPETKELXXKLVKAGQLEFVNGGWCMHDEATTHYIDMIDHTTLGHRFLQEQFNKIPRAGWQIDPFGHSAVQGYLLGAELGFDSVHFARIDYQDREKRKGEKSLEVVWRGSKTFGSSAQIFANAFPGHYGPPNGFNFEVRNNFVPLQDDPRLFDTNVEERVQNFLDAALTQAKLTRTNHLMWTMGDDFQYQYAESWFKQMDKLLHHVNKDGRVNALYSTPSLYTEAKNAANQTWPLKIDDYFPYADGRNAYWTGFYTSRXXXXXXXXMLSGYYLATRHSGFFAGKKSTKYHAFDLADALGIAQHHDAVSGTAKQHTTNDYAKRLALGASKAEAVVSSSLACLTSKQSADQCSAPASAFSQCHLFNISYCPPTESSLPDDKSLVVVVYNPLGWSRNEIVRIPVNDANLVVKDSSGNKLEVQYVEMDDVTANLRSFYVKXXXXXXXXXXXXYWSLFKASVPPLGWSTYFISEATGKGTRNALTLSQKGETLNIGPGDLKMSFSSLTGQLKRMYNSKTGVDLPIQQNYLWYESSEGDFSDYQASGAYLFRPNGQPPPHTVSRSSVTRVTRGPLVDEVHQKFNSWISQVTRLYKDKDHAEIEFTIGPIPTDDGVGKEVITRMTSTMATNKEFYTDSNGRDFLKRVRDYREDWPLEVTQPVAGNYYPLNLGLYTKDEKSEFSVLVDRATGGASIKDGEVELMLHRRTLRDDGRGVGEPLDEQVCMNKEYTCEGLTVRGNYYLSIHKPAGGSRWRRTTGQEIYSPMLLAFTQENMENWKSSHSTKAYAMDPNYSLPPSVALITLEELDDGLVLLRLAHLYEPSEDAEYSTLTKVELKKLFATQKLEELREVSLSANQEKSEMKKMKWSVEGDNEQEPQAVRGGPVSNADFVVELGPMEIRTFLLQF

Saccharomyces cerevisiae = experiment: Inhibition of Saccharomyces cerevisiae alpha-glucosidase at 0.1 mM using p-nitrophenyl glycopyranoside as substrate preincubated for 5 mins followed by substrate addition and measured after 20 mins by visible absorption spectroscopic analysis
[9] = Competitive inhibition of bovine kidney alpha-fucosidase using p-nitrophenyl glycopyranoside as substrate preincubated for 5 mins followed by substrate addition and measured after 20 mins by Lineweaver-Burk plot analysis; design: species or system Bos taurus
[10] = Inhibition of bovine kidney alpha-fucosidase using p-nitrophenyl glycopyranoside as substrate preincubated for 5 mins followed by substrate addition and measured after 20 mins by visible absorption spectroscopic analysis; design: species or system Bos taurus
Bos taurus [11] = species: Bos taurus; experiment: Inhibition of bovine kidney alpha-fucosidase at 0.120 uM using p-nitrophenyl glycopyranoside as substrate preincubated for 5 mins followed by substrate addition and measured after 20 mins by visible absorption spectroscopic analysis
Beta-galactosidase [12] = target: T3, Beta-galactosidase (Bos taurus, UniProt Q58D55); experiment: Inhibition of bovine liver beta-galactosidase using p-nitrophenyl glycopyranoside as substrate preincubated for 5 mins followed by substrate addition and measured after 20 mins by visible absorption spectroscopic analysis
T3 sequence (Q58D55 whole entry): T1 sequence (whole entry)

Beta-galactosidase [13] = target: T3, Beta-galactosidase; experiment: Competitive inhibition of bovine liver beta-galactosidase using p-nitrophenyl glycopyranoside as substrate preincubated for 5 mins followed by substrate addition and measured after 20 mins by Lineweaver-Burk plot analysis
Bos taurus [14] = species: Bos taurus; experiment: Inhibition of bovine kidney alpha-fucosidase at 0.1 mM using p-nitrophenyl glycopyranoside as substrate preincubated for 5 mins followed by substrate addition and measured after 20 mins by visible absorption spectroscopic analysis relative to control
Homo sapiens = species: Homo sapiens; experiment: Inhibition of human alpha-fucosidase at 0.1 mM using p-nitrophenyl glycopyranoside as substrate preincubated for 5 mins followed by substrate addition and measured after 20 mins by visible absorption spectroscopic analysis

Row | pKi [2] | inhibition (Aspergillus niger) | pKi [3] | inhibition (Canavalia ensiformis) | inhibition (Cornu aspersum) | inhibition (Oryza sativa) | pIC50 [4] | inhibition (Prunus dulcis) | inhibition [5] | pKi [6] | inhibition [7] | inhibition [8] | inhibition (Saccharomyces cerevisiae) | pKi [9] | pIC50 [10] | Compound | also measured
1 | 5.32 | inactive | 4.95 | inactive | inactive | inactive | 4.59 | inactive | inactive | 6.88 | inactive | inactive | inactive | 7.37 | 6.92 | C[C@@H]1N[C@@H](c2cn(CCOCCOCCOCCn3cc([C@@H]4N[C@@H](C)[C@@H](O)[C@H]4O)nn3)nn2)[C@H](O)[C@@H]1O | –
2 | 6.07 | inactive | 5.26 | inactive | inactive | inactive | 5.38 | inactive | inactive | 7.18 | inactive | inactive | inactive | 8.17 | 7.72 | C[C@@H]1N[C@@H](c2cn(-c3ccccc3)nn2)[C@H](O)[C@@H]1O | –

The next lines start with the molecule.

Row | Compound | pKi [2] | inhibition (Aspergillus niger) | pKi [3] | inhibition (Canavalia ensiformis) | inhibition (Cornu aspersum) | inhibition (Oryza sativa) | pIC50 [4] | inhibition (Prunus dulcis) | inhibition [5] | pKi [6] | inhibition [7] | inhibition [8] | inhibition (Saccharomyces cerevisiae) | pKi [9] | pIC50 [10] | also measured
3 | Cc1oc([C@H]2NC[C@@H](O)[C@H]2O)cc1C(=O)NCc1cn(CCOCCOCCOCCOCCOCCn2cc(CNC(=O)c3cc([C@H]4NC[C@@H](O)[C@H]4O)oc3C)nn2)nn1 | – | – | – | – | – | – | – | – | – | – | – | – | – | – | – | inhibition [1]: < 50%
4 | Cc1oc([C@H]2NC[C@@H](O)[C@H]2O)cc1C(=O)NCc1cn(CCOCCOCCOCCn2cc(CNC(=O)c3cc([C@H]4NC[C@@H](O)[C@H]4O)oc3C)nn2)nn1 | – | – | – | – | – | – | – | – | – | – | – | – | – | – | – | inhibition [1]: < 50%
5 | C[C@@H]1N[C@@H](c2cn(CCCCCCn3cc([C@@H]4N[C@@H](C)[C@@H](O)[C@H]4O)nn3)nn2)[C@H](O)[C@@H]1O | 5.60 | inactive | 5.15 | inactive | inactive | inactive | 5.17 | inactive | inactive | 6.62 | inactive | inactive | inactive | 7.82 | 7.33 | –
6 | C#C[C@H]1[C@H](O)[C@H](O)[C@H](C)N1C(=O)OC(C)(C)C | – | – | – | – | – | – | – | – | – | 9.00 | – | – | – | 9.70 | – | –
7 | C[C@@H]1N[C@@H](c2c[nH]nn2)[C@H](O)[C@@H]1O | 4.74 | inactive | 4.47 | inactive | inactive | inactive | 4.15 | inactive | inactive | 5.38 | inactive | inactive | inactive | 6.52 | 6.00 | –
8 | C[C@@H]1N[C@@H](c2cn(CCOCCOCc3cn(-c4cccc(S(=O)(=O)c5cccc(-n6cc(COCCOCCn7cc([C@@H]8N[C@@H](C)[C@@H](O)[C@H]8O)nn7)nn6)c5)c4)nn3)nn2)[C@H](O)[C@@H]1O | – | – | – | – | – | – | – | – | – | – | – | – | – | – | – | inhibition (Bos taurus [11]): Active
9 | C[C@@H]1N[C@@H](c2cn(CCCCCCCCCCCCn3cc([C@@H]4N[C@@H](C)[C@@H](O)[C@H]4O)nn3)nn2)[C@H](O)[C@@H]1O | – | – | – | – | – | – | – | – | – | – | – | – | – | – | – | inhibition (Bos taurus [11]): Active
10 | Cc1oc([C@H]2NC[C@@H](O)[C@H]2O)cc1C(=O)NCc1cn(CCCCCCCCCCCCn2cc(CNC(=O)c3cc([C@H]4NC[C@@H](O)[C@H]4O)oc3C)nn2)nn1 | – | inactive | – | inactive | inactive | inactive | – | inactive | inactive | – | – | inactive | inactive | – | – | pIC50 (Beta-galactosidase [12]): 5.02; pKi (Beta-galactosidase [13]): 5.24; inhibition [1]: 88%; inhibition (Bos taurus [14]): 32%; inhibition (Homo sapiens): inactive
11 | C[C@@H]1N[C@@H](c2cn(-c3ccc(S(=O)(=O)c4ccc(N=[N+]=[N-])cc4)cc3)nn2)[C@H](O)[C@@H]1O | 7.14 | inactive | 6.24 | inactive | inactive | inactive | 6.27 | inactive | inactive | 9.00 | inactive | inactive | inactive | 9.70 | 8.96 | –
12 | C[C@@H]1N[C@@H](c2cn(CCOCCOCc3cn(CCCCCCCCCCCCn4cc(COCCOCCn5cc([C@@H]6N[C@@H](C)[C@@H](O)[C@H]6O)nn5)nn4)nn3)nn2)[C@H](O)[C@@H]1O | – | – | – | – | – | – | – | – | – | – | – | – | – | – | – | inhibition (Bos taurus [11]): Active
